This is an account of results in patent publication US7425551B2, “Malonamide derivatives” (Hoffmann-La Roche Inc., priority 2006, dated 2008).

The target of the assay is T1, γ-secretase (Homo sapiens, UniProt P49768).
T1 construct: uses a HEK293 membrane fraction as a source of γ-secretase; endogenous in cells; host or cells: HEK293 (microsomal membrane fraction, solubilised in 0.25% CHAPSO)
The assay can be described thus: in vitro assay of γ-secretase activity (HEK293 membrane fraction, recombinant APP substrate, Abeta ELISA). To be noted: γ-secretase inhibition; HEK293 membrane fraction solubilized in 0.25% CHAPSO, recombinant human APP C-terminal 100 amino acids substrate, Abeta detected by ELISA. The format is biochemical. The source says:
Description of 1γ-Secretase Assay The activity of test compounds can be evaluated in assays which measure the proteolytic cleavage of suitable substrates by γ-secretase activity. These can be cellular assays where e.g., a substrate of the γ-secretase is fused in its cytoplasmic domain to a transcription factor. Cells are transfected with this fusion gene and a reporter gene, e.g., firefly luciferase, which expression is enhanced by the transcription factor. Cleavage of the fused substrate by γ-secretase will lead to expression of the reporter gene which can be monitored in appropriate assays. The γ-secretase activity can also be determined in cell-free in vitro assays where e.g., a cell lysate containing the γ-secretase complex is incubated with a suitable APP-derived substrate which is cleaved to the Abeta peptides. The amount of produced peptides can be determined with specific ELISA assays. Cell lines of neuronal origin secrete Abeta peptides which can be measured with the specific ELISA assay. Treatment with compounds which inhibit γ-secretase leads to a reduction of secreted Abeta thus providing a measure of inhibition. The in vitro assay of γ-secretase activity uses a HEK293 membrane fraction as a source of γ-secretase and a recombinant APP substrate. Latter consist of the C-terminal 100 amino acids of human APP fused to a 6× Histidin tail for purification which is expressed in E. coli in a regulatable expression vector, e.g. pEt15. This recombinant protein corresponds to the truncated APP fragment which results after […] of the extracellular domain and which constitutes the γ-secretase substrate. The assay principle is described in Li Y M et al, PNAS 97(11), 6138-6143 (2000). Hek293 cells are mechanically disrupted and the microsomal fraction is isolated by differential centrifugation. The membranes are solubilized in detergent (0.25% CHAPSO) and incubated with the APP substrate. The Abeta peptides which are produced by γ-secretase cleavage of the substrate are detected by specific ELISA assays as described (Brockhaus M et al, Neuroreport 9(7), 1481-1486 (1998).
In general terms: ELISA stands for enzyme-linked immunosorbent assay.

`CCOC(C(=O)NCC(F)(F)C(F)(F)F)C(=O)N[C@@H]1C(=O)N(CCO)c2ccccc2-c2ccccc21` (single isomer, unassigned; epimer a) [Example 18, (S or R)-2-Ethoxy-N—[(S)-5-(2-hydroxy-ethyl)-6-oxo-6,7-dihydro-5H-dibenzo[b,d]azepin-7-yl]-N′-(2,2,3,3,3-pentafluoro-propyl)-malonamide, epimer A]: the IC50 is 7 nM. For `CC(O)(C(=O)NCC(F)(F)C(F)(F)F)C(=O)N[C@@H]1C(=O)N(CCO)c2ccccc2-c2ccccc21` (single isomer, unassigned; epimer a) [Example 20], the IC50 turned out to be 3 nM. In the case of `COCCN1C(=O)[C@@H](NC(=O)C(C)(O)C(=O)NCC(F)(F)C(F)(F)F)c2ccccc2-c2ccccc21` (single isomer, unassigned; epimer a) [Example 45] it was 9 nM; in that of `CC(O)(C(=O)NCCC(F)(F)F)C(=O)N[C@@H]1C(=O)N(CCO)c2ccccc2-c2ccccc21` (single isomer, unassigned; epimer a) [Example 65, (R or S)-2-Hydroxy-N—[(S)-5-(2-hydroxy-ethyl)-6-oxo-6,7-dihydro-5H-dibenzo[b,d]azepin-7-yl]-2-methyl-N′-(3,3,3-trifluoro-propyl)-malonamide, epimer A], 39 nM. Turning to `CCOC(C(=O)NCC(F)(F)C(F)(F)F)C(=O)N[C@@H]1C(=O)N(CCO)c2ccccc2-c2ccccc21` (single isomer, unassigned; epimer b) [Example 19, [R or S]2-Ethoxy-N—[(S)-5-(2-hydroxy-ethyl)-6-oxo-6,7-dihydro-5H-dibenzo[b,d]azepin-7-yl]-N′-(2,2,3,3,3-pentafluoro-propyl)-malonamide, epimer B], the IC50 turned out to be 4 nM. Turning to `CC(O)(C(=O)NCC(F)(F)C(F)(F)F)C(=O)N[C@@H]1C(=O)N(CCO)c2ccccc2-c2ccccc21` (single isomer, unassigned; epimer b) [Example 21], the IC50 came to 1 nM.

Take `COCCN1C(=O)[C@@H](NC(=O)C(C)(O)C(=O)NCC(F)(F)C(F)(F)F)c2ccccc2-c2ccccc21` (single isomer, unassigned; epimer b) [Example 46]: the IC50 turned out to be 2 nM. Turning to `CC(O)(C(=O)NCCC(F)(F)C(F)(F)F)C(=O)N[C@@H]1C(=O)N(CCO)c2ccccc2-c2ccccc21` (single isomer, unassigned; epimer b) [Example 62, (S or R)-2-Hydroxy-N—[(S)-5-(2-hydroxy-ethyl)-6-oxo-6,7-dihydro-5H-dibenzo[b,d]azepin-7-yl]-2-methyl-N′-(3,3,4,4,4-pentafluoro-butyl)-malonamide, epimer B], the IC50 was 1 nM. `CC(O)(C(=O)NCCC(F)(F)F)C(=O)N[C@@H]1C(=O)N(CCO)c2ccccc2-c2ccccc21` (single isomer, unassigned; epimer b) [Example 66, (S or R)-2-Hydroxy-N—[(S)-5-(2-hydroxy-ethyl)-6-oxo-6,7-dihydro-5H-dibenzo[b,d]azepin-7-yl]-2-methyl-N′-(3,3,3-trifluoro-propyl)-malonamide, epimer B]: the IC50 amounted to 1 nM.

As to `COC(=O)CN1C(=O)[C@@H](NC(=O)C(C)C(=O)NCC(F)(F)C(F)(F)F)c2ccccc2-c2ccccc21` (stereo partly drawn) [Example 1, {(S)-6-Oxo-7-[2-(2,2,3,3,3-pentafluoro-propylcarbamoyl)-propionylamino]-6,7-dihydro-dibenzo[b,d]azepin-5-yl}-acetic acid methyl ester], the IC50 was determined as 10 nM.

On to `CC(C(=O)NCC(F)(F)C(F)(F)F)C(=O)N[C@@H]1C(=O)N(CCOCc2ccccc2)c2ccccc2-c2ccccc21` (stereo partly drawn) [Example 2, N—[(S)-5-(2-Benzyloxy-ethyl)-6-oxo-6,7-dihydro-5H-dibenzo[b,d]azepin-7-yl]-2-methyl-N′-(2,2,3,3,3-pentafluoro-propyl)-malonamide], for which the IC50 is 6 nM. With `CC(C(=O)NCC(F)(F)C(F)(F)F)C(=O)N[C@@H]1C(=O)N(CCO)c2ccccc2-c2ccccc21` (stereo partly drawn) [Example 3, N—[(S)-5-(2-Hydroxy-ethyl)-6-oxo-6,7-dihydro-5H-dibenzo[b,d]azepin-7-yl]-2-methyl-N ′-(2,2,3,3,3-pentafluoro-propyl)-malonamide], the IC50 came out at 1 nM. Take `CC(C)(C(=O)NCC(F)(F)C(F)(F)F)C(=O)N[C@@H]1C(=O)N(CCOCc2ccccc2)c2ccccc2-c2ccccc21` [Example 4, N—[(S)-5-(2-Benzyloxy-ethyl)-6-oxo-6,7-dihydro-5H-dibenzo[b,d]azepin-7-yl]-2,2-dimethyl-N′-(2,2,3,3,3-pentafluoro-propyl)-malonamide]: the IC50 was 9 nM. In the case of `C[C@H](OC(=O)NCC(F)(F)C(F)(F)F)C(=O)N[C@@H]1C(=O)N(CCOCc2ccccc2)c2ccccc2-c2ccccc21` [Example 5, (2,2,3,3,3-Pentafluoro-propyl)-carbamic acid (S)-1-[(S)-5-(2-benzyloxy-ethyl)-6-oxo-6,7-dihydro-5H-dibenzo[b,d]azepin-7-ylcarbamoyl]-ethyl ester], the IC50 worked out at 11 nM.

On to `CC(C)(C(=O)NCC(F)(F)C(F)(F)F)C(=O)N[C@@H]1C(=O)N(CCO)c2ccccc2-c2ccccc21` [Example 6, N—[(S)-5-(2-Hydroxy-ethyl)-6-oxo-6,7-dihydro-5H-dibenzo[b,d]azepin-7-yl]-2,2-dimethyl-N′-(2,2,3,3,3-pentafluoro-propyl)-malonamide], for which the IC50 came to 2 nM.

Regarding `O=C(CC(=O)N[C@@H]1C(=O)N(CCOCc2ccccc2)c2ccccc2-c2ccccc21)NCC(F)(F)C(F)(F)F` [Example 7, N—[(S)-5-(2-Benzyloxy-ethyl)-6-oxo-6,7-dihydro-5H-dibenzo[b,d]azepin-7-yl]-N′-(2,2,3,3,3-pentafluoro-propyl)-malonamide], the IC50 came out at 22 nM.

For `C[C@H](OC(=O)NCC(F)(F)C(F)(F)F)C(=O)N[C@@H]1C(=O)N(CCO)c2ccccc2-c2ccccc21` [Example 8, (2,2,3,3,3-Pentafluoro-propyl)-carbamic acid (S)-1-[(S)-5-(2-hydroxy-ethyl)-6-oxo-6,7-dihydro-5H-dibenzo[b,d]azepin-7-ylcarbamoyl]-ethyl ester], the IC50 worked out at 6 nM. For `O=C(CC(=O)N[C@@H]1C(=O)N(CCO)c2ccccc2-c2ccccc21)NCC(F)(F)C(F)(F)F` [Example 9, N—[(S)-5-(2-Hydroxy-ethyl)-6-oxo-6,7-dihydro-5H-dibenzo[b,d]azepin-7-yl]-N′-(2,2,3,3,3-pentafluoro-propyl)-malonamide], the IC50 is 19 nM. Turning to `COC(C(=O)NCC(F)(F)C(F)(F)F)C(=O)N[C@@H]1C(=O)N(CCOCc2ccccc2)c2ccccc2-c2ccccc21` (stereo partly drawn) [Example 10, N—[(S)-5-(2-Benzyloxy-ethyl)-6-oxo-6,7-dihydro-5H-dibenzo[b,d]azepin-7-yl]-2-methoxy-N′-(2,2,3,3,3-pentafluoro-propyl)-malonamide], the IC50 came to 49 nM.

Regarding `COC(C(=O)NCC(F)(F)C(F)(F)F)C(=O)N[C@@H]1C(=O)N(CCO)c2ccccc2-c2ccccc21` (stereo partly drawn) [Example 11, N—[(S)-5-(2-Hydroxy-ethyl)-6-oxo-6,7-dihydro-5H-dibenzo[b,d]azepin-7-yl]-2-methoxy-N′-(2,2,3,3,3-pentafluoro-propyl)-malonamide], the IC50 stood at 7 nM.

On to `CC(O)(C(=O)NCC(F)(F)C(F)(F)F)C(=O)N[C@@H]1C(=O)N(CCOCc2ccccc2)c2ccccc2-c2ccccc21` (stereo partly drawn) [Example 12, N—[(S)-5-(2-Benzyloxy-ethyl)-6-oxo-6,7-dihydro-5H-dibenzo[b,d]azepin-7-yl]-2-hydroxy-2-methyl-N′-(2,2,3,3,3-pentafluoro-propyl)-malonamide], for which the IC50 was found to be 10 nM. In the case of `CC(F)(C(=O)NCC(F)(F)C(F)(F)F)C(=O)N[C@@H]1C(=O)N(CCOCc2ccccc2)c2ccccc2-c2ccccc21` (stereo partly drawn) [Example 13, N—[(S)-5-(2-Benzyloxy-ethyl)-6-oxo-6,7-dihydro-5H-dibenzo[b,d]azepin-7-yl]-2-fluoro-2-methyl-N′-(2,2,3,3,3-pentafluoro-propyl)-malonamide] it was 10 nM; in that of `CCOC(C(=O)NCC(F)(F)C(F)(F)F)C(=O)N[C@@H]1C(=O)N(CCOCc2ccccc2)c2ccccc2-c2ccccc21` (stereo partly drawn) [Example 14], 8 nM; in that of `CC(O)(C(=O)NCC(F)(F)C(F)(F)F)C(=O)N[C@@H]1C(=O)N(CCO)c2ccccc2-c2ccccc21` (stereo partly drawn) [Example 15, 2-Hydroxy-N—[(S)-5-(2-hydroxy-ethyl)-6-oxo-6,7-dihydro-5H-dibenzo[b,d]azepin-7-yl]-2-methyl-N′-(2,2,3,3,3-pentafluoro-propyl)-malonamide], 1 nM.

One may read the IC50 as the concentration that gives 50% inhibition.
